Results on 2 molecules are retold here after ChEMBL document CHEMBL2157973, “An efficient synthesis of 3-OBn-6β,14-epoxy-bridged opiates from naltrexone and identification of a related dual MOR inverse agonist/KOR agonist” (Bioorg Med Chem Lett, 2012).

pEC50: −log10 of the molar value.

Format in all cases: functional, cell-based
Experiment [1] has as its target T1, Mu-type opioid receptor (Homo sapiens, UniProt P35372). The experiment in a line: Inverse agonist activity at human recombinant mu opioid receptor expressed in CHO cells after 3 hrs by [35S]GTPgammaS binding assay. (In general: Binding of GTPγS marks nucleotide exchange on a G protein.)
The target in experiment [2] is T1, Mu-type opioid receptor. Nature of the experiment: Inverse agonist activity at human recombinant mu opioid receptor expressed in CHO cells after 3 hrs by [35S]GTPgammaS binding assay relative to KC-2-009.
For experiment [3], the target named is Kappa-type opioid receptor (Homo sapiens) (UniProt P41145). The experiment in a line: Agonist activity at human kappa opioid receptor expressed in CHO cells after 3 hrs by [35S]GTPgammaS binding assay.
The target is the same in experiment [4]. The experiment in a line: Agonist activity at human kappa opioid receptor expressed in CHO cells after 3 hrs by [35S]GTPgammaS binding assay relative to control.

T1 sequence (P35372 whole entry): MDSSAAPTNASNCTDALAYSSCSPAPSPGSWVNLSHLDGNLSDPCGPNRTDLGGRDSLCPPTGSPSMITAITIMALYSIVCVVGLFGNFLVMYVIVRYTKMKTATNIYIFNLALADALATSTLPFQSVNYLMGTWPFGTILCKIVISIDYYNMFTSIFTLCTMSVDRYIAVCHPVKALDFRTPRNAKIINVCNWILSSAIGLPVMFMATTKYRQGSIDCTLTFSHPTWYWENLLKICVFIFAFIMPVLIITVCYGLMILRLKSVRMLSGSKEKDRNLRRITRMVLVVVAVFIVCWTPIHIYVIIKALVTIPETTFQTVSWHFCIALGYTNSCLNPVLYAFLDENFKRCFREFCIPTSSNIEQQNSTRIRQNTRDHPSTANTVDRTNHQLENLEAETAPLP
Sequence of Kappa-type opioid receptor (Homo sapiens) (P41145 whole entry): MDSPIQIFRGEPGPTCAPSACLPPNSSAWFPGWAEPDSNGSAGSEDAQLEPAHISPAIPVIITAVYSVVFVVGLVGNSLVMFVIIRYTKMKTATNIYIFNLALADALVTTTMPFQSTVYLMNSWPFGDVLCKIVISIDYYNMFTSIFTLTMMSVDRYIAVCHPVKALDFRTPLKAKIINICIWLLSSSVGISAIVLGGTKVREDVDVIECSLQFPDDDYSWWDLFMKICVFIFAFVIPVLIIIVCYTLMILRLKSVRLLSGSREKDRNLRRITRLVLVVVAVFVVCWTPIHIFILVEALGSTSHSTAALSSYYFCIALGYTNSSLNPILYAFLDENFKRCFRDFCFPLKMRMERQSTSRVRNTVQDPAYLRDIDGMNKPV

For the molecule `CS(=O)(=O)O[C@@H]1CC[C@@]2(O)[C@H]3Cc4ccc(O)c5c4[C@@]2(CCN3CC2CC2)[C@H]1O5`, the pEC50 (in general, the negative decadic logarithm of the EC50, by convention in mol/L) on Mu-type opioid receptor [1] is 8.59. In addition, the Emax (usually the size of the effect at its maximum, as opposed to the concentration needed) is 60.5% at Mu-type opioid receptor [2] and 48% in experiment [4]. For the same molecule, in experiment [3], the ED50 was 26 nM.
Regarding `Oc1ccc2c3c1O[C@H]1[C@H](O)CC[C@@]4(O)[C@@H](C2)N(CC2CC2)CC[C@]314`, at Mu-type opioid receptor [2], the Emax stood at 89%.
